Data reported in US6808909B2, “Thermostable phytase with 2.1 Å . . . crystal structure” (Korea Research Institute of Bioscience and Biotechnology, priority 2000, dated 2004).

Biological target: T1, phytase derived from B. amyloliquefaciens DS-11 (Bacillus sp., UniProt O66037)
T1 construct: made in house; host or cells: Bacillus subtilis DB104/pJPK
Experiment: Activity of the phytase on phytate and myo-inositol monophosphate substrates
Format: biochemical
Details: 2 mM substrate, 37° C. for 15 min, 20 mM Tris/HCl (pH7.0) buffer; relative to phytate = 100
Method: The activities of the phytase derived from B. amyloliquefaciens DS11 were measured on its 2 mM substrates of myo-inositol, hexaphosphate, mio-inositol 1-monophosphate, mio-inositol 2-monophosphate, myo-inositol 4-monophosphate, after incubating at 37° C. for 15 min in a 20 mM Tris/HCl (pH7.0) buffer.

T1 sequence (O66037 31-383): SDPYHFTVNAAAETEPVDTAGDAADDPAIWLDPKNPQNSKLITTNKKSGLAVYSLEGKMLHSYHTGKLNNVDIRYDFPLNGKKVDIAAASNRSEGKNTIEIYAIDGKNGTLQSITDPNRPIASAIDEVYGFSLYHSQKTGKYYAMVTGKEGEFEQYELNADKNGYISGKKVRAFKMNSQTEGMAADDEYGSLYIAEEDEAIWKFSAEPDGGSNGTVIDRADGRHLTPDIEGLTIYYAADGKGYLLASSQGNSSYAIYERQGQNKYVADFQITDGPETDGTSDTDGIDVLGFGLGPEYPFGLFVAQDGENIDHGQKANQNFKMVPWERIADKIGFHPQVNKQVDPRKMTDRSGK

| Compound | Relative Enzyme Activity (%) |
| --- | --- |
| O=P(O)(O)OC1[C@H](O)[C@H](O)C(O)[C@H](O)[C@H]1O (stereo partly shown) [1′-monophosphoinositol, mio-inositol 1-monophosphate] | 27% |
| O=P(O)(O)OC1[C@@H](O)[C@H](O)C(O)[C@H](O)[C@H]1O (stereo partly shown) [2′-monophosphoinositol, mio-inositol 2-monophosphate] | 28% |
| O=P(O)(O)OC1[C@@H](O)[C@@H](O)C(O)[C@H](O)[C@H]1O (stereo partly shown) [4′-monophosphoinositol, myo-inositol 4-monophosphate] | 40% |
| O=P(O)(O)O[C@H]1[C@H](OP(=O)(O)O)[C@@H](OP(=O)(O)O)[C@H](OP(=O)(O)O)[C@@H](OP(=O)(O)O)[C@H]1OP(=O)(O)O [Phytate, myo-inositol, hexaphosphate] | 100% |
